Columns and labels:
HeLa [1] = test: MTS proliferation assay; assay type: cell-based; details: Homo sapiens, 72 h incubation
Procedure: (§1) The assay is performed in 96 well tissue culture plates. The cells (range : 1.5*10^3-10^4) are seeded out in 80 µl complete medium 24 h prior to compound treatment. The test compounds are added in 20 µl complete medium containing max 5% DMSO. The final compound concentrations in the assays are 10 µM, 3 µM,1 µM and 0.3 µM, respectively. The assay plates are incubated for 72 h at culture conditions. The MTS reagent is prepared according to the manufacturer's protocol (Promega G1111 ). 20 µl MTS reagent are added to each well, the assay plates are quickly spun and incubated for another 3 h at culture conditions. Subsequently, the plates are shortly shaked and absorption measured with a microplate-reader at 492 nm.

Jurkat [2] = test: MTS proliferation assay; assay type: cell-based; details: Homo sapiens, 72 h incubation
Procedure: as §1

K562 [3] = test: MTS proliferation assay; assay type: cell-based; details: Homo sapiens, K562, 72 h incubation
Procedure: as §1

HeLa [4] = test: Hoechst 33342 nuclear staining (Table 3); assay type: cell-based, human; design: key: 0 relating to no activity; 1 relating to weak activity comprising less than 50% of the cells; score 2 relating to strong activity comprising more than 50% of the cells
Procedure: (§2) This assay is performed in 96 well tissue culture plates. Appropriate number of cells (adherent cells: 3 - 5*10^3, suspension cells: 8 - 10*10^3) are being seeded out in 80 µl complete medium. Adherent cells are incubated for 24 h for proper spreading out before addition of test compounds while suspension cells are immediately treated with test compounds after seeding out. The test compounds are added in 20 µl complete medium containing max 5% DMSO. The final compound concentrations in the assays are 10 µM, 3 µM,1 µM and 0.3 µM, respectively. After 24 h or 48 h incubation at culture conditions, 10 µl medium containing Hoechst 33342 dye (Sigma B-2261) at 2-5 µg/ml are added to each well. The assay plates are then further incubated for 30 minutes and subsequently analyzed with a standard inverted fluorescence microscope. The readout allows the determination of the fraction of apoptotic nuclei as well as other morphological criteria specific for apoptosis as a function of the treatment. The following scores are used: 0 relating to no activity, 1 relating to weak activity comprising less than 50% of the cells and score 2 relating to strong activity comprising more than 50% of the cells.

Jurkat [5] = test: Hoechst 33342 nuclear staining (Table 3); assay type: cell-based, human; design: key: 0 relating to no activity; 1 relating to weak activity comprising less than 50% of the cells; score 2 relating to strong activity comprising more than 50% of the cells
Procedure: as §2

K562 [6] = test: Hoechst 33342 nuclear staining (Table 3); assay type: cell-based, human; design: key: 0 relating to no activity; 1 relating to weak activity comprising less than 50% of the cells; score 2 relating to strong activity comprising more than 50% of the cells
Procedure: as §2

Ramos [7] = test: Hoechst 33342 nuclear staining (Table 3); assay type: cell-based, human; design: key: 0 relating to no activity; 1 relating to weak activity comprising less than 50% of the cells; score 2 relating to strong activity comprising more than 50% of the cells
Procedure: as §2

KB = test: Hoechst 33342 nuclear staining (Table 3); assay type: cell-based, human; design: key: 0 relating to no activity; 1 relating to weak activity comprising less than 50% of the cells; score 2 relating to strong activity comprising more than 50% of the cells
Procedure: as §2

A20 = test: AnnexinV/7-AAD staining; assay type: cell-based, mouse; details: A20, 10 µM, 24 h treatment
Procedure: (§3) Adherent cells (1 - 2*10^5) are 24 h prior to compound treatment seeded into 24 well tissue culture plates. Suspension cells are pipetted into P-tubes immediately before treatment. Test compounds are added leading to a final concentrations of 10 µM. After 24 h treatment cells are harvested (in case of adherent cells by trypsinization) and transferred to FACS tubes (BD Biosciences). After centrifugation and removal of the supernatant, 100 µl complete medium containing AnnexinV-GST (10 µg) is added, mixed and incubated at 4°C for 30 minutes. Subsequently, the cells are washed once with medium and incubated with 100 µl anti-GST Alexa 488 (Molecular Probes A-11131) in medium diluted 1:500 for 30 minutes at 4°C. Then, cells are washed once and stained with 1 µg/ml 7-aminoactinomycin D (7-AAD) (Molecular Probes A-1310) in 250 µl medium and analyzed on the FACSCalibur™. AnnexinV is measured in FL1 whereas 7-AAD is measured in FL3. In Table 5 the percentage of positively stained cells after treatment with the respective compounds are indicated. The following scores are used: Score 0 relates to less than 10%, score 1 relates to more than 10% but less than 50% and score 2 relates to more than 50% positivity.

HeLa [8] = test: AnnexinV/7-AAD staining; assay type: cell-based, human; details: 10 µM, 24 h treatment
Procedure: as §3

Jurkat [9] = test: AnnexinV/7-AAD staining; assay type: cell-based, human; details: 10 µM, 24 h treatment
Procedure: as §3

Ramos [10] = test: AnnexinV/7-AAD staining; assay type: cell-based, human; details: 10 µM, 24 h treatment
Procedure: as §3

CC1(C)Cc2ccccc2-c2c(C(=O)C(F)(F)F)c3nc4ccccc4nc3n21 [No. 4, 1-(6,6-Dimethyl-5,6-dihydro-6a,7,12-triaza-dibenzo[a,h]fluoren-13-yl)-2,2,2-trifluoro-ethanone]
IC50 (HeLa [1]): > 10 µM | IC50 (Jurkat [2]): > 10 µM | IC50 (K562 [3]): > 10 µM | Hoechst 33342 nuclear staining (HeLa [4]; 24h, conc 0.3 (µM)): 0 | Hoechst 33342 nuclear staining (HeLa [4]; 24h, conc 1 (µM)): 0 | Hoechst 33342 nuclear staining (HeLa [4]; 24h, conc 3 (µM)): 0 | Hoechst 33342 nuclear staining (HeLa [4]; 24h, conc 10 (µM)): 2 (score 2 relating to strong activity comprising more than 50% of the cells) | Hoechst 33342 nuclear staining (HeLa [4]; 48h, conc 0.3 (µM)): 0 | Hoechst 33342 nuclear staining (HeLa [4]; 48h, conc 1 (µM)): 0 | Hoechst 33342 nuclear staining (HeLa [4]; 48h, conc 3 (µM)): 2 (score 2 relating to strong activity comprising more than 50% of the cells) | Hoechst 33342 nuclear staining (HeLa [4]; 48h, conc 10 (µM)): 2 (score 2 relating to strong activity comprising more than 50% of the cells) | Hoechst 33342 nuclear staining (Jurkat [5]; 24h, conc 0.3 (µM)): 0 | Hoechst 33342 nuclear staining (Jurkat [5]; 24h, conc 1 (µM)): 0 | Hoechst 33342 nuclear staining (Jurkat [5]; 24h, conc 3 (µM)): 2 (score 2 relating to strong activity comprising more than 50% of the cells) | Hoechst 33342 nuclear staining (Jurkat [5]; 24h, conc 10 (µM)): 2 (score 2 relating to strong activity comprising more than 50% of the cells) | Hoechst 33342 nuclear staining (Jurkat [5]; 48h, conc 0.3 (µM)): 0 | Hoechst 33342 nuclear staining (Jurkat [5]; 48h, conc 1 (µM)): 2 (score 2 relating to strong activity comprising more than 50% of the cells) | Hoechst 33342 nuclear staining (Jurkat [5]; 48h, conc 3 (µM)): 2 (score 2 relating to strong activity comprising more than 50% of the cells) | Hoechst 33342 nuclear staining (Jurkat [5]; 48h, conc 10 (µM)): 2 (score 2 relating to strong activity comprising more than 50% of the cells) | Hoechst 33342 nuclear staining (K562 [6]; K562, 24h, conc 0.3 (µM)): 0 | Hoechst 33342 nuclear staining (K562 [6]; K562, 24h, conc 1 (µM)): 1 (1 relating to weak activity comprising less than 50% of the cells) | Hoechst 33342 nuclear staining (K562 [6]; K562, 24h, conc 3 (µM)): 2 (score 2 relating to strong activity comprising more than 50% of the cells) | Hoechst 33342 nuclear staining (K562 [6]; K562, 24h, conc 10 (µM)): 2 (score 2 relating to strong activity comprising more than 50% of the cells) | Hoechst 33342 nuclear staining (K562 [6]; K562, 48h, conc 0.3 (µM)): 0 | Hoechst 33342 nuclear staining (K562 [6]; K562, 48h, conc 1 (µM)): 2 (score 2 relating to strong activity comprising more than 50% of the cells) | Hoechst 33342 nuclear staining (K562 [6]; K562, 48h, conc 3 (µM)): 2 (score 2 relating to strong activity comprising more than 50% of the cells) | Hoechst 33342 nuclear staining (K562 [6]; K562, 48h, conc 10 (µM)): 2 (score 2 relating to strong activity comprising more than 50% of the cells) | Hoechst 33342 nuclear staining (Ramos [7]; 24h, conc 0.3 (µM)): 1 (1 relating to weak activity comprising less than 50% of the cells) | Hoechst 33342 nuclear staining (Ramos [7]; 24h, conc 1 (µM)): 2 (score 2 relating to strong activity comprising more than 50% of the cells) | Hoechst 33342 nuclear staining (Ramos [7]; 24h, conc 3 (µM)): 2 (score 2 relating to strong activity comprising more than 50% of the cells) | Hoechst 33342 nuclear staining (Ramos [7]; 24h, conc 10 (µM)): 2 (score 2 relating to strong activity comprising more than 50% of the cells) | Hoechst 33342 nuclear staining (Ramos [7]; 48h, conc 0.3 (µM)): 1 (1 relating to weak activity comprising less than 50% of the cells) | Hoechst 33342 nuclear staining (Ramos [7]; 48h, conc 1 (µM)): 2 (score 2 relating to strong activity comprising more than 50% of the cells) | Hoechst 33342 nuclear staining (Ramos [7]; 48h, conc 3 (µM)): 2 (score 2 relating to strong activity comprising more than 50% of the cells) | Hoechst 33342 nuclear staining (Ramos [7]; 48h, conc 10 (µM)): 2 (score 2 relating to strong activity comprising more than 50% of the cells) | Hoechst 33342 nuclear staining (KB; 24h, conc 0.3 (µM)): 0 | Hoechst 33342 nuclear staining (KB; 24h, conc 1 (µM)): 0 | Hoechst 33342 nuclear staining (KB; 24h, conc 3 (µM)): 0 | Hoechst 33342 nuclear staining (KB; 24h, conc 10 (µM)): 2 (score 2 relating to strong activity comprising more than 50% of the cells) | Hoechst 33342 nuclear staining (KB; 48h, conc 0.3 (µM)): 0 | Hoechst 33342 nuclear staining (KB; 48h, conc 1 (µM)): 0 | Hoechst 33342 nuclear staining (KB; 48h, conc 3 (µM)): 2 (score 2 relating to strong activity comprising more than 50% of the cells) | Hoechst 33342 nuclear staining (KB; 48h, conc 10 (µM)): 2 (score 2 relating to strong activity comprising more than 50% of the cells) | percentage of positively stained cells (AnnexinV/7-AAD staining) (A20): 1 (score 1 relates to more than 10% but less than 50%) | percentage of positively stained cells (AnnexinV/7-AAD staining) (HeLa [8]): 1 (score 1 relates to more than 10% but less than 50%) | percentage of positively stained cells (AnnexinV/7-AAD staining) (Jurkat [9]): 2 (score 2 relates to more than 50% positivity) | percentage of positively stained cells (AnnexinV/7-AAD staining) (Ramos [10]): 2 (score 2 relates to more than 50% positivity)
